# Where a SMILES comes first, the peptide text is derived from it. Bridges are numbered along the chain shown (N, C = ends). [ ]: non-standard residue; d: D form. The star is where a group is joined. X2 = CCC(C)C(N)C1=NC(C(=O)*)CS1; Orn = NCCC[CH](N)C(=O)O
# Test system: Micrococcus luteus
# Assay: Potency (specific antibacterial activity): agar plate inhibition zones compared with Bacitracin Zinc standard
# Type: cell-based
# Conditions: calculated from potency of sample A and its 93% area-% content
# Method: Potency is the in vitro antibacterial activity. It can be measurered and expressed as IU/mg. The antibacterial activity of samples A, B′ and C′ (see Table 1) was measured. The specific antibacterial activity (listed here as IU/mg), often termed potency, was measured by comparing the antibacterial activity of the unknown sample with known (standard) samples. Specifically, a Bacitracin Zinc standard was dissolved and diluted to 2.0, 1.0, and 0.5 IU bacitracin/ml in 0.07 M phosphate buffer pH 6.0. These three standard solutions were added to agar plates inoculated with the test organism, Micrococcus luteus. The unknown samples were dissolved, diluted and added to the same plate as the standards. After 16-24 hours at 32-37 C, the inhibition zones were measured and the unknown samples were compared to the standards.
compound,measurement,value
CCC(C)C(N)C1=NC(C(=O)NC(CC(C)C)C(=O)NC(CCC(=O)O)C(=O)NC(C(=O)NC2CCCCNC(=O)C(CC(N)=O)NC(=O)C(CC(=O)O)NC(=O)C(Cc3c[nH]cn3)NC(=O)C(Cc3ccccc3)NC(=O)C(C(C)CC)NC(=O)C(CCCN)NC2=O)C(C)CC)CS1 (stereo not shown) [Bacitracin A] (X2-LEIK[Orn]IFHDN; lactam 4-C; configuration not given here),"specific antibacterial activity of Bacitracin A, calculated from sample A (93% Bacitracin A by HPLC at 254 nm)",77.4 IU/mg

# Reference: patent US8410044B2, “Bacitracin antibiotics” (Xellia Pharmaceuticals Aps, priority 2009, dated 2013)
